How the values were obtained:
[1] = biological target: T1, 5-Lipoxygenase enzyme (10,000 g supernatant from RBL-1 cells) (Rattus norvegicus, UniProt P12527); assay: RBL-1 5-Lipoxygenase Screen; type: biochemical; settings: decrease in 5-HETE + 5,12-diHETE formation relative to control, read-out: Per cent inhibition of 5-lipoxygenase at × μM concentration; for inhibition at 20 µM: at 20 μM compound
T1 construct: prepared as a 10,000 g supernatant from RBL-1 cells; endogenous in cells; host or cells: RBL-1 cells (10,000 g supernatant)
T1 sequence (P12527 1-673): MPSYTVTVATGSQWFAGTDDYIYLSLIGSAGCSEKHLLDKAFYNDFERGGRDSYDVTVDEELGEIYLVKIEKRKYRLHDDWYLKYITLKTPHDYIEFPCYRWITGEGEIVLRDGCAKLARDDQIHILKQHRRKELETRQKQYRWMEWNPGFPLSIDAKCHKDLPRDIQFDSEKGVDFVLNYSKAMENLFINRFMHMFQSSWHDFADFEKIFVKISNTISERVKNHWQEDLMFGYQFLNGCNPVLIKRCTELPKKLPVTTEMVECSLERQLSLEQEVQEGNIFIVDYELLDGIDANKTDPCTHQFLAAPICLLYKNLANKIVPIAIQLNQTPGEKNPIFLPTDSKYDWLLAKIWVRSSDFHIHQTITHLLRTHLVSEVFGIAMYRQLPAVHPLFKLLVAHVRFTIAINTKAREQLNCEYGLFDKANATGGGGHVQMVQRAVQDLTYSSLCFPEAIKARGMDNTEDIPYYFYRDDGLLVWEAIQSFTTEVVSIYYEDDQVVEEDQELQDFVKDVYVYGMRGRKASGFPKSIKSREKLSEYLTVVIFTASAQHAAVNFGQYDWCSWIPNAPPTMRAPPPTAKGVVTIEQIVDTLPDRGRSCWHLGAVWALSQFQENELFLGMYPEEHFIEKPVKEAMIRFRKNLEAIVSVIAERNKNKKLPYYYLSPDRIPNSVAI
Procedure: (1) RBL-1 5-Lipoxygenase Screen
5-Lipoxygenase enzyme was prepared as a 10,000 g supernatant from RBL-1 cells by the method of Jakschik (Jakschik, B. A., F. F. Sun, L. M. Lee, and M. M. Steinhoff, 1980, Biochem. Biophys. Res. Comm. 95, 103). The 10,000 g supernatant was diluted with homogenization buffer to the equivalent of 1.5-2.5×10^7 cells. ml.^-1 and made 2 mM with respect to CaCl2. Aliquots of 0.5 ml were then dispensed into tubes, and incubated at 29° C. with 5 ul ethanol or compound in ethanol at the desired concentration for 2 min. Then [1-^14 C] arachidonic acid was added in buffer to give a final concentration of 6.3 uM and 0.2 uCi per incubation, and the reaction continued at 29° C. for 2 min. The reaction was terminated by adding 1 ml of acetone and cooling on ice, 0.5 ml of ice-cold saline and 100 ul of 2N formic acid were added, and the mixture was extracted with 2×2 ml of chloroform. The extract was stored under N2 at -20° C. until analysis by chromatography. Activity was measured as the percentage of total radioactivity found in 5-HETE and 5,12-diHETE, and inhibition calculated as the decrease in formation of the sum of these two species in compound-treated incubates relative to control incubations.

[2] = test system: cyclo-oxygenase (bovine seminal vesicle microsomes); assay: Cyclo-oxygenase Screen; type: biochemical; settings: at 50 μM compound; decrease in prostaglandin formation
Procedure: (2) Cyclo-oxygenase Screen
Compounds were preincubated with the incubation constitutents for 5 min at 37° C. before the reaction was started by the addition of the arachidonic acid. The reaction was continued at 37° C. for 2 min, then stopped by placing the incubations on ice and the addition of 1.2 ml 0.2M citric acid. Unmetabolised substrate and prostaglandin products were extracted in ethyl acetate (2×4 ml), the combined extracts washed with 0.8 ml water, and separated by thin-layer chromatography (Kieselgel GF254 plates in ethyl acetate:acetone:glacial acetic acid, 90:10:1, v/v). Recovery was 65-80%. The regions on the thin-layer chromatography plate that chromatographed with authentic arachidonic acid or prostaglandins E2 and F2 α (Rf 's 0.70, 0.28 and 0.16 respectively) were scraped and the radioactivity in each determined by liquid scintillation counting with a correction for quenching being made by the external standard-channels ratio method. Inhibition of cyclo-oxygenase activity was calculated from the decrease in prostaglandin formation. Each compound concentration was tested in triplicate and the 50% inhibitory concentration, if determined, was calculated by linear regression from the inhibitory data at, at least three different compound concentrations.

| inhibition at 20 µM [1] [%] | Per cent inhibition of cyclo-oxygenase at 50 μM concentration [2] [%] | inhibition at 5 µM ([1]; at 5 μM compound) [%] | SMILES |
| --- | --- | --- | --- |
| 30 | – | – | CCCCCCCCCCCC#Cc1cnccc1/C=C/C(=O)O [Example 2, 3-[3-(1-Tridecynyl)-4-pyridyl)prop-2-enoic acid] |
| 72 | 15 | – | CCCCCCCCCCCC#Cc1cnccc1C=C(C(=O)O)C(=O)O [Example 4, 2-[3-(1-Tridecynyl)-4-pyridyl]methylenepropane-1,3-dioic acid] |
| – | 46 | 38 | CCCCCCCCCCCC#Cc1ccoc1/C=C/C(=O)O [Example 7, 3-[3-(1-Tridecynyl)-2-furanyl]prop-2-enoic acid] |
